We go through 1 compound from paper PMC5514153, “Targeting PTPRZ inhibits stem cell-like properties and tumorigenicity in glioblastoma cells” (Scientific Reports, 2017).

In test [1] the test system is oligodendrocyte precursor OL1 cells. The experiment in a line: OL1 oligodendrocyte differentiation assay. The test is classed as cell-based, mouse. Conditions: 10 days in differentiation media. Here is the method:
Figure 6 Effects of NAZ2329 treatment on oligodendrocyte differentiation. Mouse oligodendrocyte-lineage OL1 cells were cultured in differentiation media containing the indicated concentrations of NAZ2329. After 10 days, cells were fixed with formalin and stained with anti-NG2 proteoglycan (oligodendrocyte precursor cells, red) and anti-MBP (oligodendrocyte, green) antibodies, in conjunction with the DAPI-labeling of nuclei (blue). Scale bars, 100 µm.
The preparation of mouse oligodendrocyte-lineage OL1 cells was described previously. […] On the 10th day of the culture, differentiation from oligodendrocyte precursor cells to oligodendrocytes was assessed was described previously[14]–[16]. Briefly, cells were fixed and stained with anti-NG2 (a specific marker for oligodendrocyte precursor cells) and anti-MBP (a marker for matured oligodendrocytes), and the observed with a standard fluorescence microscope (Biozero BZ8000, Keyence). Differentiation from oligodendrocyte precursor cells to oligodendrocytes was expressed as the ratio of MBP-positive cells to NG2-positive cells.

Test [2] concerns the target T1, hPTPN6 (Homo sapiens, UniProt P29350).
T1 construct: the catalytic domains of PTPN1 and PTPN6 were expressed as glutathione-S-transferase (GST) fusion proteins; GST (N); made in house; host or cells: Escherichia coli BL21
T1 sequence (P29350 244-515 limits assumed): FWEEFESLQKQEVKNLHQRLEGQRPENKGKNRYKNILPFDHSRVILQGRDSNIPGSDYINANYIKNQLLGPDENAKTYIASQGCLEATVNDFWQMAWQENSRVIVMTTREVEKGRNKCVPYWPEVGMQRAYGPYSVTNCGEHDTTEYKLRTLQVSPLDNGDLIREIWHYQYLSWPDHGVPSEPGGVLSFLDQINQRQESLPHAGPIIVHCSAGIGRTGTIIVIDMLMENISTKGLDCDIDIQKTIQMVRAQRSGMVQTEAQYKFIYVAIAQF
The experiment in a line: In vitro PTPase assay (DiFMUP), PTPN6. The test is classed as biochemical. The settings on record: 60-min preincubation. On the procedure: Figure 4 NAZ2329, an allosteric inhibitor of R5 RPTP subfamily members. (A) Structure of NAZ2329. (B) Effect of preincubation of NAZ2329 on its inhibitory activity against PTPRZ. Recombinant human PTPRZ1 enzyme (the whole intracellular region) was premixed with NAZ2329 for the indicated times and followed by addition of a fluorogenic DiFMUP (non-specific PTP substrate, 6,8-difluoro-4-methylumbiliferyl phosphate) to measure PTP inhibitory activity. (C) Time dependence. The PTPRZ1 enzyme was added to the inhibitor–substrate mixture, and the inhibitory activity was determined at each time point relative to the vehicle control. (D) Reversibility of inhibition. […] The mixture was then 20-fold diluted, and recovered PTP activity was expressed as the relative activity compared with the vehicle-treated enzyme. […] PTPRZ1 enzymes were preincubated with NAZ2329 for 60 min, and the PTP activity was measured using DiFMUP. […]
Recombinant proteins corresponding to the entire intracellular regions (ICRs) of PTPRZ1, PTPRA, and PTPRM were expressed using a baculovirus-silkworm expression system, and purified as described. The ICRs of PTPRG, PTPRS, and PTPRB and the catalytic domains of PTPN1 and PTPN6 were expressed as glutathione-S-transferase (GST) fusion proteins from each pGEX plasmid in Escherichia coli strain BL21 (ref. [6]). […]

In the case of `CCOc1ccc(C(F)(F)F)cc1CSc1ccsc1C(=O)NS(=O)(=O)c1ccccc1` [NAZ2329], the “differentiation of OL1 cells to mature oligodendrocytes (MBP-positive/NG2-positive ratio)” value in test [1] is “dose-dependently induced the differentiation”. This compound also had an IC50 in test [2] of 15.2 µM.
